Source: US12686687B2, “Compounds and uses thereof” (Foghorn Therapeutics Inc., priority 2019, dated 2026)
Like-named read-outs stand apart in the source and are kept apart here.

Target: T1, Nanoluciferase-BRD9 fusion protein (3×FLAG-NLuc-BRD9) in SYO-1 cells (Homo sapiens, UniProt Q9H8M2)
T1 construct: expressed in transfected cells; host or cells: SYO-1
T1 sequence (Q9H8M2 1-597): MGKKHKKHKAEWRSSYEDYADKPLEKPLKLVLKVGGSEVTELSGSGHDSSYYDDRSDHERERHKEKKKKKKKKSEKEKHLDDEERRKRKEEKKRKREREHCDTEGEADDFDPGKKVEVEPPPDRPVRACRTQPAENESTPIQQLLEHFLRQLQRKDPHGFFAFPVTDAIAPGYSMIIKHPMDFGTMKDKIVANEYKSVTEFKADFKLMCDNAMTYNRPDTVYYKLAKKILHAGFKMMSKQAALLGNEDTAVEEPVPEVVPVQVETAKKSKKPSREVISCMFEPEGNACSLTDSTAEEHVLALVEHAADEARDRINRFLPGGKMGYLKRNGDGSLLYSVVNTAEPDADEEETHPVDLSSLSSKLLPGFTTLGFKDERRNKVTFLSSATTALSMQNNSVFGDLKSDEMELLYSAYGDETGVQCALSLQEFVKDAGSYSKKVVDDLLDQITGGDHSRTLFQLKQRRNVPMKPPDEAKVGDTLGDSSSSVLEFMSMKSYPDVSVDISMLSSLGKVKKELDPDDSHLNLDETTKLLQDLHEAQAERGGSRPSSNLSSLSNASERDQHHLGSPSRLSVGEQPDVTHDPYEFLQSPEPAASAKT
Assay: SYO1 BRD9 NanoLuc degradation assay
Format: cell-based
Conditions: SYO-1 cells expressing 3×FLAG-NLuc-BRD9, 6 hours incubation, 1 μM top dose, read-out: SYO1 BRD9-NanoLuc degradation IC50
Method: Procedure: A stable SYO-1 cell line expressing 3×FLAG-NLuc-BRD9 was generated. On day 0 cells were seeded in 30 μL media into each well of 384-well cell culture plates. The seeding density was 8000 cells/well. On day 1, cells were treated with 30 nL DMSO or 30 nL of 3-fold serially DMSO-diluted compounds (10 points in duplicates with 1 μM as final top dose). Subsequently plates were incubated for 6 hours in a standard tissue culture incubator and equilibrated at room temperature for 15 minutes. Nanoluciferase activity was measured by adding 15 μL of freshly prepared Nano-Glo Luciferase Assay Reagent (Promega N1130), shaking the plates for 10 minutes and reading the bioluminescence using an EnVision reader. • Results: The Inhibition % was calculated using the following formula: % Inhibition=100×(LumHC−LumSample)/(LumHC−LumLC). DMSO treated cells are employed as High Control (HC) and 1 μM of a known BRD9 degrader standard treated cells are employed as Low Control (LC).

Row | DC50 (Table 6C) [nM] | DC50 (Table 6B) [nM] | Compound
1 | < 10 | – | COc1cc(-c2cn(C)c(=O)c3cscc23)cc(OC)c1CN1CCC2(CC1)CN(c1ccc3c(c1)C(=O)N(C1CCC(=O)NC1=O)C3=O)C2 (stereo not shown) [Compound D208]
2 | – | > 10 | COc1cc(-c2cn(C)c(=O)c3cc(C(=O)NC4CCN(C)CC4(F)F)sc23)cc(OC)c1CN(C)CC(=O)NCCOCCOc1cccc2c1C(=O)N(C1CCC(=O)NC1=O)C2=O (stereo not shown) [Compound D30]
3 | < 10 | – | COc1cc2c(=O)n(C)cc(-c3cc(OC)c(CN4CCC(CN5CCC6(CC5)CN(c5ccc7c(c5)C(=O)N(C5CCC(=O)NC5=O)C7)C6)CC4)c(OC)c3)c2s1 (stereo not shown) [Compound D100]
4 | < 10 | – | COc1cc(Cl)cc(-c2cn(C)c(=O)c3cc(C(=O)NC4CCN(c5ccc6c(c5)C(=O)N(C5CCC(=O)NC5=O)C6)CC4)sc23)c1 (stereo not shown) [Compound D93]
5 | < 10 | – | COc1cc(-c2cn(C)c(=O)c3cnsc23)cc(OC)c1CN1CC(Oc2ccc3c(c2)C(=O)N(C2CCC(=O)NC2=O)C3)C1 (stereo not shown) [Compound D213]
6 | < 10 | – | COc1cc(-c2cn(C)c(=O)c3cc(C(=O)NC4CCN(CCCCCOc5ccc6c(c5)CN(C5CCC(=O)NC5=O)C6=O)CC4(F)F)sc23)cc(OC)c1CN(C)C (stereo not shown) [Compound D163]
7 | < 10 | – | COc1cc(-c2cn(C)c(=O)c3sccc23)cc(OC)c1CN1CCC(CN2CCC3(CC2)CC(Oc2ccc4c(c2)CN(C2CCC(=O)NC2=O)C4=O)C3)CC1 (stereo not shown) [Compound D199]
8 | < 10 | – | COc1cc(-c2cn(C)c(=O)c3cc(C(=O)NC4CCN(C5CN(c6ccc7c(c6)C(=O)N(C6CCC(=O)NC6=O)C7=O)C5)CC4(F)F)sc23)cc(OC)c1CN(C)C (stereo not shown) [Compound D191]
9 | – | > 100 | COc1cc(-c2cn(C)c(=O)c3cc(C(=O)NC4CCC(N(C)CCCCOc5cccc6c5C(=O)N(C5CCC(=O)NC5=O)C6=O)CC4)sc23)cc(OC)c1CN(C)C (stereo not shown) [Compound D80]
10 | – | > 100 | COc1cc(-c2cn(C)c(=O)c3cc(C(=O)NC4CCC45CCN(C(=O)CCN4CCN(c6ccc7c(c6)C(=O)N(C6CCC(=O)NC6=O)C7=O)CC4)CC5)sc23)cc(OC)c1CN(C)C (stereo not shown) [Compound D54]
11 | < 10 | – | COc1cc(-c2cn(C)c(=O)c3ccsc23)cc(OC)c1CN1CCC2(CC1)CN(c1ccc3c(c1)C(=O)N(C1CCC(=O)N(COC(=O)[C@@H](N)C(C)C)C1=O)C3=O)C2 (stereo partly shown) [Compound D107]
12 | < 10 | – | COc1cc(-c2cn(C)c(=O)c3cc(C)sc23)cc(OC)c1CN1CCC(CN2CCC3(CC2)CN(c2ccc4c(c2)C(=O)N(C2CCC(=O)NC2=O)C4=O)C3)CC1 (stereo not shown) [Compound D184]
13 | < 10 | – | COc1cc(-c2cn(C)c(=O)c3cc(C(=O)N[C@H]4CCN(CCN5CCN(c6ccc7c(c6)C(=O)N(C6CCC(=O)NC6=O)C7)CC5)CC4(F)F)sc23)cc(OC)c1CN(C)C (stereo partly shown) [Compound D112]
14 | – | > 100 | COc1cc(-c2cn(C)c(=O)c3cc(C(=O)NC4C[C@@H]5CN(C(=O)CCN6CCN(c7ccc8c(c7)C(=O)N(C7CCC(=O)NC7=O)C8=O)CC6)C[C@H]45)sc23)cc(OC)c1CN(C)C (stereo partly shown) [Compound D63]
15 | < 10 | – | Cn1cc(-c2cccc(C(F)(F)F)c2)c2sc(C(=O)NC3CN(c4ccc5c(c4)C(=O)N(C4CCC(=O)NC4=O)C5)C3)cc2c1=O (stereo not shown) [Compound D103]
16 | < 10 | – | COc1cc(-c2cn(C)c(=O)c3cc(C)sc23)cc(OC)c1CN1CCC(CN2CCC3(CC2)CC(Oc2ccc4c(c2)C(=O)N(C2CCC(=O)NC2=O)C4=O)C3)CC1 (stereo not shown) [Compound D173]
17 | – | > 100 | COc1cc(-c2cn(C)c(=O)c3cc(C(=O)NC4C[C@@H]5CN(CCN6CCN(c7ccc8c(c7)C(=O)N(C7CCC(=O)NC7=O)C8=O)CC6)C[C@H]45)sc23)cc(OC)c1CN(C)C (stereo partly shown) [Compound D64]
18 | < 10 | – | COc1cc(-c2cn(C)c(=O)c3ccsc23)cc(OC)c1CN1CCC(CN2CCC3(CC2)CN(c2ccc4c(c2)C(=O)N(C2CCC(=O)NC2=O)C4)C3)CC1 (stereo not shown) [Compound D99]
19 | > 100 | – | COc1cc(-c2cn(C)c(=O)c3cc(C(=O)NC4CCN(C5CC6(C5)CN(c5ccc7c(c5)CN(C5CCC(=O)NC5=O)C7=O)C6)CC4(F)F)sc23)cc(OC)c1CN(C)C (stereo not shown) [Compound D137]
